Data taken from patent US20220125877A1, “METHOD FOR TREATING COLORECTAL CANCER” (SUN YAT-SEN UNIVERSITY, priority 2019, published 2022).

Key:
[1] = test system: KRAS (G13D) mutation SW48 cell line; test: Azacitidine treatment: MATE1 expression and anti-proliferation effect of metformin; format: cell-based, human; conditions: FIGS. 16E-F
[2] = test system: LoVo cells; test: as above; format: cell-based, human; conditions: FIGS. 16E-F

Nc1ncn([C@@H]2O[C@H](CO)[C@@H](O)[C@H]2O)c(=O)n1 [azacitidine]
expression of MATE1 [1]: up-regulate the expression of MATE1
effect on the anti-tumor proliferation effect of metformin ([1]; with metformin): inhibiting the anti-tumor proliferation effect of metformin
expression of MATE1 [2]: up-regulate the expression of MATE1
effect on the anti-tumor proliferation effect of metformin ([2]; with metformin): inhibiting the anti-tumor proliferation effect of metformin
